Like-named read-outs stand apart in the source and are kept apart here.
Molecular target: T1, EBP-Ig (N-terminal 225 amino acids of the human EPO receptor joined to an Ig heavy chain) (Homo sapiens, UniProt P19235)
T1 construct: Ig heavy chain (fusion partner); made in house; host or cells: NSO cells (secreted into conditioned media)
T1 sequence (P19235 25-250 limits assumed): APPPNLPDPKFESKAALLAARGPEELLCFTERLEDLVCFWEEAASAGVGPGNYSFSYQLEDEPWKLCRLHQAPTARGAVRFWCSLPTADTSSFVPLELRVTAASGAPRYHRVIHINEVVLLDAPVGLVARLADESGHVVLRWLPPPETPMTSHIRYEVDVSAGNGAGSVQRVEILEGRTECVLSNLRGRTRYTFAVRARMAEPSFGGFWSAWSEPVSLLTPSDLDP
Test: Inhibition of [125I]EPO binding to immobilized EBP-Ig (EPO binding protein-Ig), scintillation Flash plate competition assay
Conditions: for % inh @ 50 μM (Inhibition of EPO binding to EBP-Ig): 50 μM test compound, average % inhibition; for % inh @ 50 μM (Inhibition of EPO binding to EBP-Ig) / IC30 μM (Inhibition of EPO binding to EBP-Ig) / IC50: 0.5 nM [125I]EPO; for IC30 μM (Inhibition of EPO binding to EBP-Ig): 0–500 μM test compound; for IC50: read-out: IC50, μM (Inhibition of EPO binding to EBP-Ig), concentration reducing corrected total binding to 50%
From the text: The interaction of biotin and streptavidin is frequently employed to capture and effectively immobilize reagents useful in assay protocols and has been employed here as a simple method to capture and immobilize EBP-Ig. EBP-Ig is initially randomly modified with an amine reactive derivative of biotin to produce biotinylated-EBP-Ig. Use of streptavidin coated plates allows the capture of the biotinylated EBP-Ig on the surface of a scintillant impregnated coated well (Flash plates, NEN-DuPont). […] The amount of light produced was quantified to estimate the amount of ligand binding. The specific assay format was suitable for the multi-well plate capacity of a Packard TopCount Microplate Scintillation counter.
Biotinylated EBP-Ig was prepared as follows. EBP-Ig (3 mL, OD280 2.9) was exchanged into 50 mM sodium bicarbonate, pH 8.5 using a Centriprep 10 ultrafiltration device. The final volume of the exchanged protein was 1.2 mL (OD280 2.6, representing about 2 mg total protein). 10 μL of a 4 mg/ml solution of NHS-LC-Biotin (Pierce) was added and the reaction mixture placed on ice in the dark for two hours. Unreacted biotin was removed by exchange of the reaction buffer into PBS in a Centriprep 10 device and the protein reagent aliquoted and stored at −70° C.
All wells were adjusted to a final DMSO concentration of 5%. […] After all additions were made, the plate was covered with an adhesive top seal and placed in the dark at room temperature overnight. The next day all liquid was aspirated from the wells to limit analyte dependent quench of the signal, and the plates were counted on a Packard TOPCOUNT Microplate Scintillation Counter. […] Corrected total binding (CTB) was calculated as: TB−NSB=CTB. […] Table 1 lists the average % inhibition, and if determined the IC50 and IC30 values for compounds of Formula I, where the compound numbers refer to the compounds in the tables accompanying the preparative examples.

[1] = 50 μM compound, Table 10, 50 µM

COC(=O)C(CCCCNC(=O)OCc1ccccc1)N(C/C=C/c1ccc2ccccc2c1)C/C=C/c1ccc2ccccc2c1 (stereo not drawn) [compound 175]
EPO/EBP-Ig % inh @ 50 μM (50 μM compound, Table 9): 1%

COC(=O)C(CCCCNC(=O)OCc1ccccc1)N(C/C=C/c1cccc(Oc2ccccc2)c1)C/C=C/c1cccc(Oc2ccccc2)c1 (stereo not drawn) [compound 176]
EPO/EBP-Ig % inh @ 50 μM (50 μM compound, Table 9): −4%

COC(=O)C(CCCCNC(=O)OC(C)(C)C)N(C/C=C/c1ccc([N+](=O)[O-])cc1)C/C=C/c1ccc([N+](=O)[O-])cc1 (stereo not drawn) [compound 178]
EPO/EBP-Ig % inh @ 50 μM (50 μM compound, Table 9): 36%
% inh @ 50 μM (Inhibition of EPO binding to EBP-Ig): 36%

CC(C)(C)OC(=O)NCCCCC(C(=O)O)N(C/C=C/c1ccc([N+](=O)[O-])cc1)C/C=C/c1ccc([N+](=O)[O-])cc1 (stereo not drawn) [compound 179]
EPO/EBP-Ig % inh @ 50 μM (50 μM compound, Table 9): 30%
% inh @ 50 μM (Inhibition of EPO binding to EBP-Ig): 30%

COC(=O)C(CCCCNC(=O)OC(C)(C)C)N(C/C=C/c1cccc(Oc2ccccc2)c1)C/C=C/c1cccc(Oc2ccccc2)c1 (stereo not drawn) [compound 180]
EPO/EBP-Ig % inh @ 50 μM (50 μM compound, Table 9): −4%

COC(=O)C(CCCCNC(=O)OC(C)(C)C)N(C/C=C/c1cccc(Oc2ccc(C(C)(C)C)cc2)c1)C/C=C/c1cccc(Oc2ccc(C(C)(C)C)cc2)c1 (stereo not drawn) [compound 181]
EPO/EBP-Ig % inh @ 50 μM (50 μM compound, Table 9): −9%

COC(=O)C(CCCCN)N(C/C=C/c1cccc(Oc2ccc(C(C)(C)C)cc2)c1)C/C=C/c1cccc(Oc2ccc(C(C)(C)C)cc2)c1 (stereo not drawn) [compound 182]
EPO/EBP-Ig % inh @ 50 μM (50 μM compound, Table 9): 18%

COC(=O)C(CCCCNC(=O)OC(C)(C)C)N(C/C=C/c1cccc([N+](=O)[O-])c1)C/C=C/c1cccc([N+](=O)[O-])c1 (stereo not drawn) [compound 183]
EPO/EBP-Ig % inh @ 50 μM (50 μM compound, Table 9): 36%
% inh @ 50 μM (Inhibition of EPO binding to EBP-Ig): 36%

COC(=O)C(CCCCN)N(C/C=C/c1cccc([N+](=O)[O-])c1)C/C=C/c1cccc([N+](=O)[O-])c1 (stereo not drawn) [compound 184]
IC30 μM (Inhibition of EPO binding to EBP-Ig): 10 µM
EPO/EBP-Ig % inh @ 50 μM (50 μM compound, Table 9): 53%
% inh @ 50 μM (Inhibition of EPO binding to EBP-Ig): 53%

COC(=O)C(CCCCN)N(C/C=C/c1cccc(N)c1)C/C=C/c1cccc(N)c1 (stereo not drawn) [compound 185]
EPO/EBP-Ig % inh @ 50 μM (50 μM compound, Table 9): 29%

CCCCNC(=O)C(CCCCN)N(C/C=C/c1ccccc1)C/C=C/c1ccccc1 (stereo not drawn) [compound 205]
EPO/EBP-Ig % inh @ 50 μM (50 μM compound, Table 10): 26%

CCCCNC(=O)C(CCCCNC(=O)c1ccccc1OC)N(C/C=C/c1ccccc1)C/C=C/c1ccccc1 (stereo not drawn) [compound 206]
EPO/EBP-Ig % inh @ 50 μM [1]: 17%

CCCCNC(=O)C(CCCCNC(=O)c1ccc(OC)cc1)N(C/C=C/c1ccccc1)C/C=C/c1ccccc1 (stereo not drawn) [compound 207]
EPO/EBP-Ig % inh @ 50 μM (50 μM compound, Table 10): 20%

CCCCNC(=O)C(CCCCNC(=O)c1ccccc1)N(C/C=C/c1ccccc1)C/C=C/c1ccccc1 (stereo not drawn) [compound 208]
EPO/EBP-Ig % inh @ 50 μM (50 μM compound, Table 10): 22%

CCCCNC(=O)C(CCCCNC(=O)c1ccccc1OC)N(C/C=C/c1ccccc1)C/C=C/c1ccccc1 (stereo not drawn) [compound 209]
EPO/EBP-Ig % inh @ 50 μM [1]: 25%

COc1ccc(CCNC(=O)C(CCCCN)N(CC=Cc2ccccc2)CC=Cc2ccccc2)cc1 (stereo not drawn) [compound 211]
IC30 μM (Inhibition of EPO binding to EBP-Ig): 20 µM
inhibition at 50 µM (read-out: % inh @ 50 μM (Inhibition of EPO binding to EBP-Ig)): 62%
inhibition at 50 µM (read-out: EPO/EBP-Ig % inh @ 50 μM, 50 μM compound, Table 10): 62%
IC50: 65 µM

CCCNC(=O)C(CCCCN)N(C/C=C/c1ccccc1)C/C=C/c1ccccc1 (stereo not drawn) [compound 212]
EPO/EBP-Ig % inh @ 50 μM (50 μM compound, Table 10): −10%

CC(C)(C)OC(=O)NCCCCC(C(=O)NCc1ccc(OCC=Cc2ccccc2)cc1)N(CC=Cc1ccccc1)CC=Cc1ccccc1 (stereo not drawn) [compound 216]
EPO/EBP-Ig % inh @ 50 μM (50 μM compound, Table 10): 10%

NCCCCC(C(=O)NCc1ccc(OCC=Cc2ccccc2)cc1)N(CC=Cc1ccccc1)CC=Cc1ccccc1 (stereo not drawn) [compound 220]
IC30 μM (Inhibition of EPO binding to EBP-Ig): 30 µM
EPO/EBP-Ig % inh @ 50 μM (50 μM compound, Table 10): 45%
% inh @ 50 μM (Inhibition of EPO binding to EBP-Ig): 45%
IC50: 50 µM

Reference: patent US7153869B2, “Substituted amino acids as erythropoietin mimetics” (priority 1998, dated 2006)
